Source: patent publication US11779618B2, “Treatment of topical and systemic bacterial infections” (priority 2014, dated 2023)

Tested on: S. aureus 8588
Experiment: Effectiveness against S. aureus 8588 (absorbance, Mueller-Hinton broth)
Format: cell-based
Conditions: 0.01 mg/ml ampicillin (below MIC)
From the text: The absorbance readings of treatments above the MIC were similar to the negative control of Mueller-Hinton broth alone indicating no bacterial growth.
The absorbance readings of the phage K treated wells were similar to the negative control Mueller-Hinton broth alone.

With `CC1(C)S[C@@H]2[C@H](NC(=O)[C@H](N)c3ccccc3)C(=O)N2[C@H]1C(=O)O` [ampicillin] the “effect on bacterial growth” value was “has some effect on bacterial growth but is not totally effective”.
